Common to all, as to format: cell-based
The target of experiment [1] is T1, GPR32 (DRV1) (Homo sapiens, UniProt O75388).
T1 construct: CHO cells stably expressing human recombinant GPR32 coupled to a β-arrestin reporter system
The experiment in a line: PathHunter β-arrestin recruitment in CHO cells (reference agonist). Background: Arrestin recruitment assays detect the binding of arrestin to an activated receptor.

Another experiment concerns the target T2, GPR101 (Homo sapiens, UniProt Q96P66).
T2 construct: GPR101-overexpressing CHO cells
T2 sequence (Q96P66 1-508): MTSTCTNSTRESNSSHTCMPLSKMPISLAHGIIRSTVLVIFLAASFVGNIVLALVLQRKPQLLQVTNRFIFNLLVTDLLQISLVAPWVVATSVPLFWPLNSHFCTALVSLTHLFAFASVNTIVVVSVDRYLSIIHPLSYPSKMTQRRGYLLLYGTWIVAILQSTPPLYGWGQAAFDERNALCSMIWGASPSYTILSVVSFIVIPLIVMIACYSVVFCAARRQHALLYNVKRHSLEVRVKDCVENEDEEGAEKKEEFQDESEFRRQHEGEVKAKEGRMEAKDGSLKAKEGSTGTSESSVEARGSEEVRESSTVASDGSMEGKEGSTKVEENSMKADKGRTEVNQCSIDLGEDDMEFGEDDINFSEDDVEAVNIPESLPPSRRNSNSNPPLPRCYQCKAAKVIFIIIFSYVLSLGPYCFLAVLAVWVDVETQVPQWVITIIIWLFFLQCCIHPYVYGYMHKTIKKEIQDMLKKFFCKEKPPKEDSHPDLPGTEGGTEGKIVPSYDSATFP
The experiment in a line: tritiated radioligand saturation binding on GPR101-overexpressing CHO cells (plus homologous competition, IC50 […]). An excerpt:
These experiments yielded a calculated KD

In experiment [2] the target is T1, GPR32 (DRV1). Kind of experiment: PathHunter β-arrestin recruitment in CHO cells.

Molecules are shown by their SMILES.

T1 sequence (O75388 whole entry): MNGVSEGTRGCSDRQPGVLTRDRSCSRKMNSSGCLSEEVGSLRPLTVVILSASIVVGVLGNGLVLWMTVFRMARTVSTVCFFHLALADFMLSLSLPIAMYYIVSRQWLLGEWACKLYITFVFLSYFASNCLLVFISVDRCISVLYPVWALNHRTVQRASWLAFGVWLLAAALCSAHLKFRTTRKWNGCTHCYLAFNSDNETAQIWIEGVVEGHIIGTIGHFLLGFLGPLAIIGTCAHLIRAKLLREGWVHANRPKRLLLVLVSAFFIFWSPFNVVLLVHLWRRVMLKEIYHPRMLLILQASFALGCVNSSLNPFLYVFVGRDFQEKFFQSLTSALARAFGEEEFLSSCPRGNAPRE

Regarding `CC/C=C\C[C@H](O)/C=C/C=C\C=C\C=C\[C@@H](O)[C@@H](O)C/C=C\CCC(=O)O` [RvD1, 7S,8R,17S-trihydroxy-4Z,9E,11E,13Z,15E,19Z-docosahexaenoic acid], the EC50 – broadly, the concentration that produces a half-maximal response – at GPR32 (DRV1) [1] was roughly 0.0015 nM.

In the case of `CC/C=C\C[C@H](O)/C=C/C=C\C/C=C\C=C\[C@@H](O)CCCCCC(=O)O` [RvD5n-3 DPA, 7S,17S-dihydroxy-8E,10Z,13Z,15E,19Z-docosapentaenoic acid], at GPR101, the Kd (commonly the concentration at which binding is half-saturated) is roughly 6.9 nM. The same molecule displayed an EC50 at GPR32 (DRV1) [2] of roughly 0.014 nM.

The values are drawn from publication PMC6934227, “GPR101 mediates the pro-resolving actions of RvD5n-3 DPA in arthritis and infections” (The Journal of Clinical Investigation, 2019).
